The molecules below were run against T1, hKv7.2/7.3 (Homo sapiens, UniProt O43525+O43526) (assay: Kv7.2/7.3 Activation Assay, QPatch planar patch-clamp single concentration screen). Conditions: increase in current over baseline, Kv7.2/Kv7.3 co-expressing HEK cells, compound concentration 3 μM, steady-state current at end of 2 s pulse to −30 mV.
T1 construct: host or cells: HEK cells, tetracycline-inducible expression
Type: cell-based
Procedure: The ability of compounds to potentiate K-currents in Kv7.2/7.3 containing HEK cells was assessed using planar patch-clamp on the QPatch automated screening platform.
Cell Line: The hKv7.2/7.3 cell line was obtained from Chantest (Cleveland, OH 44128) cat. #CT6147. These HEK cells will express the Kv7.2/7.3 ion channels when induced.
Cell Culture: Cells were maintained in a media containing DMEM/F12; 50/50 (GIBCO cat. #11330), 10% Fetal Bovine Serum (FBS) (GIBCO cat. #26140), 100 units/mL Penicillin-Streptomycin (GIBCO cat. #15140), 0.005 mg/mL Blasticidin (INVIVOGEN cat. #ant-bl-1), 0.5 mg/mL Geneticin (GIBCO cat. #10131), 0.1 mg/mL Zeocin (GIBCO cat. #R25001). Cells used in the electrophysiology assay were maintained in a media without Blasticidin, Geneticin and Zeocin for 2 days and channel expression was induced by adding tetracycline (BIOLINE cat. #BIO-87030) at a final concentration of […]. Cells were grown in T-175 flask to ˜75% confluency. Currents were recorded 24 hours after channel induction.
Compound Plates: Test compounds were prepared by performing serial dilutions on a Biomek NX^P (BECKMAN COULTER). Final dilutions were made in external recording solution with a final DMSO concentration of 0.1% DMSO. For single concentration screens each plate had 10 μM retigabine as a positive control and 0.1% DMSO as a negative control.
Electrophysiology: On the day of the experiment cells were washed with Hank's Balanced Salt Solution (HBBS) (GIBCO cat. #14175) and harvested with Tryple (GIBCO cat. #12604). Cells were then centrifuged at 2000 rpm for 5 minutes and resuspended in CHO—S-SFM (GIBCO cat. #12052) at […]. Cells were stirred for 30 minutes before experiments were started. External recording solution contained (in mM): NaCl (145), KCl (4), CaCl2 (2), MgCl2 (1), HEPES (10) and Glucose (10); pH was adjusted to 7.4 with NaOH and the osmolarity was adjusted to 300-305 mOsM with sucrose if necessary. Internal solution contained (in mM): KCl (125), KF (10), EGTA (5), Na2ATP (5), MgCl2 (3.2), HEPES (5); pH was adjusted to 7.2 with KOH and the osmolarity was adjusted to 298-302 mOsM with sucrose.
Potassium channel activity was measured on the QPatch HTX (Sophion Bioscience) using QPlates with 48-wells/plate. Each cell was taken as an independent experiment and only one compound was tested per well. Potassium channel activity was elicited by holding at −80 mV and stepping to −30 mV for 2 s followed by a 100 ms pulse to −120 mV.
Single concentration screen: Baseline conditions were obtained by recording 5 sweeps in the external solution only, this was repeated for three applications of the external solution. The effect of test compounds on elicited current was then assessed by recording 5 sweeps in the presence of a 3 μM compound solution. The steady-state current at the end of the 2 s pulse to −30 mV was measured to determine the fold increase from baseline.

Row | SMILES | QPatch Kv7.2/7.3 Activity
1 | CC(C)(O)CC(=O)Nc1nn2ccc(Cl)cc2c1-c1ccc(F)cc1 [Example 58, N-(5-chloro-3-(4-fluorophenyl)pyrazolo [1,5-a]pyridin-2-yl)-3-hydroxy-3-methylbutanamide] | + (2.0-3.99 (+))
2 | CC(C)(C)CC(=O)Nc1nn2ccc(C#N)cc2c1-c1ccc(F)cc1 [Example 59, N-(5-cyano-3-(4-fluorophenyl)pyrazolo [1,5-a]pyridin-2-yl)-3,3-dimethylbutanamide] | + (2.0-3.99 (+))
3 | CC(C)(C)CC(=O)Nc1nn2cccc(F)c2c1C1CCC1 [Example 60, N-(3-cyclobutyl-4-fluoropyrazolo [1,5-a]pyridin-2-yl)-3,3-dimethylbutanamide] | ++ (4.0-5.99 (++))
4 | CC(C)(O)CC(=O)Nc1nn2cccc(F)c2c1C1CCC1 [Example 61, N-(3-cyclobutyl-4-fluoropyrazolo[1,5-a]pyridin-2-yl)-3-hydroxy-3-methylbutanamide] | +/− (1.2-1.99-fold (+/−))
5 | C[C@](O)(CC(=O)Nc1nn2ccc(Cl)cc2c1-c1ccc(F)cc1)C(F)(F)F [Example 62, (S)-N-(5-chloro-3-(4-fluorophenyl)pyrazolo [1,5-a]pyridin-2-yl)-4,4,4-trifluoro-3-hydroxy-3-methylbutanamide] | + (2.0-3.99 (+))
6 | C[C@@](O)(CC(=O)Nc1nn2ccc(Cl)cc2c1-c1ccc(F)cc1)C(F)(F)F [Example 63, (R)-N-(5-chloro-3-(4-fluorophenyl)pyrazolo [1,5-a]pyridin-2-yl)-4,4,4-trifluoro-3-hydroxy-3-methylbutanamide] | + (2.0-3.99 (+))
7 | CC(C)(F)CC(=O)Nc1nn2ccc(C(F)(F)F)cc2c1C1CCC1 [Example 64, N-(3-cyclobutyl-5-(trifluoromethyl)pyrazolo [1,5-a]pyridin-2-yl)-3-fluoro-3-methylbutanamide] | +++ (>6-fold (+++))
8 | CC(C)(C)CC(=O)Nc1nn2c(C(F)F)cccc2c1C1CCC1 [Example 65, N-(3-cyclobutyl-7-(difluoromethyl)pyrazolo [1,5-a]pyridin-2-yl)-3,3-dimethylbutanamide] | ++ (4.0-5.99 (++))
9 | CC(C)(O)CC(=O)Nc1nn2c(-c3ccc(F)cc3)cccc2c1C1CCC1 [Example 66, N-(3-cyclobutyl-7-(4-fluorophenyl)pyrazolo [1,5-a]pyridin-2-yl)-3-hydroxy-3-methylbutanamide] | − (<1.2-fold (−))
10 | Cn1ccc(-c2c(NC(=O)CC(C)(C)O)nn3ccc(C(F)(F)F)cc23)n1 [Example 67, 3-hydroxy-3-methyl-N-(3-(1-methyl-1H-pyrazol-3-yl)-5-(trifluoromethyl)pyrazolo [1,5-a]pyridin-2-yl)butanamide] | − (<1.2-fold (−))
11 | CC(C)(O)CC(=O)Nc1nn2ccc(Cl)cc2c1-c1ccc(OC(F)(F)F)cc1 [Example 68, N-(5-chloro-3-(4-(trifluoromethoxy)phenyl)pyrazolo[1,5-a]pyridin-2-yl)-3-hydroxy-3-methylbutanamide] | + (2.0-3.99 (+))
12 | CC(C)(C)OC(=O)Nc1nn2ccc(Br)cc2c1C1CCC1 [Example 69, tert-butyl (5-bromo-3-cyclobutylpyrazolo[1,5-a]pyridin-2-yl)carbamate] | + (2.0-3.99 (+))
13 | CC(C)(O)CC(=O)Nc1nn2c(C3CC3)cccc2c1C1CCC1 [Example 70, N-(3-cyclobutyl-7-cyclopropylpyrazolo [1,5-a]pyridin-2-yl)-3-hydroxy-3-methylbutanamide] | + (2.0-3.99 (+))
14 | C[C@](O)(CC(=O)Nc1nn2ccc(Cl)cc2c1-c1ccc(F)cc1)c1ccccc1 [Example 71, (S)-N-(5-chloro-3-(4-fluorophenyl)pyrazolo [1,5-a]pyridin-2-yl)-3-hydroxy-3-phenylbutanamide] | + (2.0-3.99 (+))
15 | CC(C)(O)CC(=O)Nc1nn2c(C(F)F)cccc2c1C1CCC1 [Example 72, N-(3-cyclobutyl-7-(difluoromethyl)pyrazolo [1,5-a]pyridin-2-yl)-3-hydroxy-3-methylbutanamide] | +/− (1.2-1.99-fold (+/−))
16 | C[C@@](O)(CC(=O)Nc1nn2cccc(F)c2c1C1CCC1)c1ccccn1 [Example 73, (R)-N-(3-cyclobutyl-4-fluoropyrazolo [1,5-a]pyridin-2-yl)-3-hydroxy-3-(pyridin-2-yl)butanamide] | − (<1.2-fold (−))
17 | CC(C)(C)CC(=O)Nc1nn2ccc(C3(O)CCC3)cc2c1C1CCC1 [Example 74, N-(3-cyclobutyl-5-(1-hydroxycyclobutyl)pyrazolo[1,5-a]pyridin-2-yl)-3,3-dimethylbutanamide] | ++ (4.0-5.99 (++))
18 | CC(C)(C)CC(=O)Nc1nn2c(C(F)(F)F)cccc2c1-c1ccc(F)cc1 [Example 75, N-(3-(4-fluorophenyl)-7-(trifluoromethyl)pyrazolo [1,5-a]pyridin-2-yl)-3,3-dimethylbutanamide] | − (<1.2-fold (−))
19 | CC(C)(O)CC(=O)Nc1nn2c(C(F)(F)F)cccc2c1-c1ccc(F)cc1 [Example 76, N-(3-(4-fluorophenyl)-7-(trifluoromethyl)pyrazolo [1,5-a]pyridin-2-yl)-3-hydroxy-3-methylbutanamide] | + (2.0-3.99 (+))
20 | CCC(O)(CC)CC(=O)Nc1nn2ccc(C(F)(F)F)cc2c1-c1ccc(F)cc1 [Example 77, 3-ethyl-N-(3-(4-fluorophenyl)-5-(trifluoromethyl)pyrazolo [1,5-a]pyridin-2-yl)-3-hydroxypentanamide] | + (2.0-3.99 (+))
21 | C[C@](O)(CC(=O)Nc1nn2c(C(F)(F)F)cccc2c1-c1ccc(F)cc1)c1ccccc1 [Example 78, (S)-N-(3-(4-fluorophenyl)-7-(trifluoromethyl)pyrazolo [1,5-a]pyridin-2-yl)-3-hydroxy-3-phenylbutanamide] | + (2.0-3.99 (+))
22 | CC(C)(C)CC(=O)Nc1nn2ccc(C(C)(C)O)cc2c1-c1ccc(F)cc1 [Example 79, N-(3-(4-fluorophenyl)-5-(2-hydroxypropan-2-yl)pyrazolo[1,5-a]pyridin-2-yl)-3,3-dimethylbutanamide] | ++ (4.0-5.99 (++))
23 | CC(C)(C)CC(=O)Nc1nn2ccc(C(F)(F)F)cc2c1C#N [Example 80, N-(3-cyano-5-(trifluoromethyl)pyrazolo [1,5-a]pyridin-2-yl)-3,3-dimethylbutanamide] | − (<1.2-fold (−))
24 | CC(C)(C)CC(=O)Nc1nn2c(Cl)cc(Cl)cc2c1-c1ccc(F)cc1 [Example 81, N-(5,7-dichloro-3-(4-fluorophenyl)pyrazolo [1,5-a]pyridin-2-yl)-3,3-dimethylbutanamide] | ++ (4.0-5.99 (++))
25 | CC(C)(C)CC(=O)Nc1nn2ccc(Cl)cc2c1-c1ccc(F)cc1 [Example 82, N-(5-chloro-3-(4-fluorophenyl)pyrazolo [1,5-a]pyridin-2-yl)-3,3-dimethylbutanamide] | +++ (>6-fold (+++))
26 | O=C(CC(O)(CF)CF)Nc1nn2ccc(C(F)(F)F)cc2c1C1CCC1 [Example 83, N-(3-cyclobutyl-5-(trifluoromethyl)pyrazolo[1,5-a]pyridin-2-yl)-4-fluoro-3-(fluoromethyl)-3-hydroxybutanamide] | + (2.0-3.99 (+))
27 | CC(C)(C)CC(=O)NNc1nn2ccc(C(F)(F)F)cc2c1-c1ccc(F)cc1 [Example 84, N′-(3-(4-fluorophenyl)-5-(trifluoromethyl)pyrazolo [1,5-a]pyridin-2-yl)-3,3-dimethylbutanehydrazide] | +/− (1.2-1.99-fold (+/−))
